Test results published in BindingDB's records for doi:10.1016/j.bmcl.2021.128422 (Tohoku Medical and Pharmaceutical University, 2021).

Target: Maltase-glucoamylase (Homo sapiens, UniProt O43451)
Assay: Inhibition of alpha-glucosidase (unknown origin) using p-nitrophenyl-alpha-D-glucopyranoside as substrate incubated for 50 mins by microplate reader analysis

Sequence of Maltase-glucoamylase (O43451 whole entry): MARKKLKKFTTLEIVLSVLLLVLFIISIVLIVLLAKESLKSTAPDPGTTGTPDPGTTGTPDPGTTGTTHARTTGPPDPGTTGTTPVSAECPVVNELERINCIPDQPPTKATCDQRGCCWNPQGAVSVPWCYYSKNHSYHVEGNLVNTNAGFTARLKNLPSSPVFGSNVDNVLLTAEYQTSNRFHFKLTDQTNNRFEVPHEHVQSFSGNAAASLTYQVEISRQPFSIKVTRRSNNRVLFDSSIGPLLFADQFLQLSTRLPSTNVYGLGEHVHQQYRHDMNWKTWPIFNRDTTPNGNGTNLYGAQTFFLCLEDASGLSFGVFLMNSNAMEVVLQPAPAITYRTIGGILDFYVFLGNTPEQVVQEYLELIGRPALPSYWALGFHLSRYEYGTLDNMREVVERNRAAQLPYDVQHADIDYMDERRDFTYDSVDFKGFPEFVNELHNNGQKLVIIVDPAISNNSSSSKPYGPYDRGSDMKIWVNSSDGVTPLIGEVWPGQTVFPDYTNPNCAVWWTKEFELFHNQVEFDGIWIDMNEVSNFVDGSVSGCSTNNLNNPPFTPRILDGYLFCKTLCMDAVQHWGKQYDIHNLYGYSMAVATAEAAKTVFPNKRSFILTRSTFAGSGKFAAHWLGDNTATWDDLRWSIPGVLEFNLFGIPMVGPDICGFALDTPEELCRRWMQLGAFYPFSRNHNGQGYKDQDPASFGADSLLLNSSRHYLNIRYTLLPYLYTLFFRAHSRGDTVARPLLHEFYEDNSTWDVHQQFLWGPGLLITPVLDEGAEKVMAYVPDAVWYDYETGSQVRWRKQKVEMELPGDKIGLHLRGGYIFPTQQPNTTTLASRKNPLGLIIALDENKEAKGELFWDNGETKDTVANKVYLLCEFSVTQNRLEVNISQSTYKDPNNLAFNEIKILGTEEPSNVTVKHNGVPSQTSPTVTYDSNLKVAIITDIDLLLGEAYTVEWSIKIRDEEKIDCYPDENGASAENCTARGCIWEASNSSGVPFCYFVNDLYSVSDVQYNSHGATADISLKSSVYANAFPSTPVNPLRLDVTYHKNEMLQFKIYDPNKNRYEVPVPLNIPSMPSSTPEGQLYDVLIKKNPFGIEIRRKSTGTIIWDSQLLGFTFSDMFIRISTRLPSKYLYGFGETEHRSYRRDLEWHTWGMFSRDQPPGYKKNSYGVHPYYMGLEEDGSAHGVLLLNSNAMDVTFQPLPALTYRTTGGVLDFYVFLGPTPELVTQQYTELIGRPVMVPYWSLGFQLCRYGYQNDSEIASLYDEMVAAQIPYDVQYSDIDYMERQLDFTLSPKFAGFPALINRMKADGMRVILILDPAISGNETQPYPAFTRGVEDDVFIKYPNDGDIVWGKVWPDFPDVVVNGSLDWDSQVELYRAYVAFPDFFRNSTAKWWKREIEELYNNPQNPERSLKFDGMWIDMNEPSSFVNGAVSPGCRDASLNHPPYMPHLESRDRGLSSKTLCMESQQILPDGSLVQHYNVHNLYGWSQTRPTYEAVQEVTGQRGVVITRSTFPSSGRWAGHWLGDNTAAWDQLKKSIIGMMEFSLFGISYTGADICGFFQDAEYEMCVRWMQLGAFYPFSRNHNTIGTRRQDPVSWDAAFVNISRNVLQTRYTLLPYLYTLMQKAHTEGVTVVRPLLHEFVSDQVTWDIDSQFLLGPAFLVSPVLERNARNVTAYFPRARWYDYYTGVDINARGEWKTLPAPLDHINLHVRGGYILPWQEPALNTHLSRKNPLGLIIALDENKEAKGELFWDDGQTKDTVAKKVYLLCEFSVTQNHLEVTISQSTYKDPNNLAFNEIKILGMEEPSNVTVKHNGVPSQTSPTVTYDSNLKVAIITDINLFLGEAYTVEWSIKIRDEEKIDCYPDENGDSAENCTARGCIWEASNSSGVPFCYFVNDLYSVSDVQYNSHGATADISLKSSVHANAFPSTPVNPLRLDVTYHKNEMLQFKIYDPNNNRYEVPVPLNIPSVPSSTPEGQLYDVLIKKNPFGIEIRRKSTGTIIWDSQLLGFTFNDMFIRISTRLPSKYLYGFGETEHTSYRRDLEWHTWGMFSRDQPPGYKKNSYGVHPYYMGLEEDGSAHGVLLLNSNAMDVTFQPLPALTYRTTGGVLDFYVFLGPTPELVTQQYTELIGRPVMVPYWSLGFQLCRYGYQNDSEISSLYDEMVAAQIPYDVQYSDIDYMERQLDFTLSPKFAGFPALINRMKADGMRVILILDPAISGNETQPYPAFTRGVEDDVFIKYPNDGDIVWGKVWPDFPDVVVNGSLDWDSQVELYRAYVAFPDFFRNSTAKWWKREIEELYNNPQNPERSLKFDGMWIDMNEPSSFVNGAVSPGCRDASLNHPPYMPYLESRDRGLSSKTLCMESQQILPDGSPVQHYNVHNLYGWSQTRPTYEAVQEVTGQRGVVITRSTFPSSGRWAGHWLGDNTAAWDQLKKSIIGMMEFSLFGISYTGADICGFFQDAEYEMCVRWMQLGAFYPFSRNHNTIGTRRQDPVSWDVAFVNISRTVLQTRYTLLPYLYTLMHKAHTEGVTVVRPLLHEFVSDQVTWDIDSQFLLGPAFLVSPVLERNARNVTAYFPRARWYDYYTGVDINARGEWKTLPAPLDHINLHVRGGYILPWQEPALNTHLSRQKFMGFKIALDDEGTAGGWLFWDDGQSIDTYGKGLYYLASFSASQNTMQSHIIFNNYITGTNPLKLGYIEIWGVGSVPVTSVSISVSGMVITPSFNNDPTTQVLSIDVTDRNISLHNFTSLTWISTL

Row | SMILES | IC50 [µM]
1 | C=C1C(=O)O[C@@H]2/C=C(\C)C[C@H](O)/C=C(\C)C[C@@H](OC(=O)/C(=C\C)CO)[C@@H]12 | > 28
2 | C=C1C(=O)O[C@@H]2/C=C(\C)C[C@H](O)/C=C(\C)C[C@@H](OC(=O)/C(=C\C)COC(C)=O)[C@@H]12 | > 25
3 | O=c1c(O)c(-c2ccc(O)c(O)c2)oc2cc(O)cc(O)c12 [2-(3,4-dihydroxyphenyl)-3,5,7-trihydroxy-chromone;hydrate] | 10.8
4 | C=C1C(=O)O[C@@H]2/C=C(\C)CC/C=C(\C)C[C@@H](OC(=O)/C(=C/CO)CO)[C@@H]12 | > 28
5 | C=C1C(=O)O[C@@H]2/C=C(\C)[C@@H](O)C/C=C(\C)C[C@@H](OC(=O)/C(=C\C)COC(C)=O)[C@@H]12 | > 25
6 | C=C1C(=O)O[C@@H]2/C=C(\C)CC/C=C(\C)C[C@@H](OC(=O)/C(=C\C)CO)[C@@H]12 | > 29
7 | C=C1C(=O)O[C@@H]2/C=C(\C)CC/C=C(\C)C[C@@H](OC(=O)/C(=C/C)COC(C)=O)[C@@H]12 | > 25
8 | C=C1C(=O)O[C@@H]2/C=C(\C)CC/C=C(\C)C[C@@H](OC(=O)/C(=C/C)CO)[C@@H]12 | > 29
9 | C=C1C(=O)O[C@@H]2/C=C(\C)CC/C=C(\CO)C[C@@H](OC(=O)/C(C)=C/C)[C@@H]12 | > 25
10 | C=C1C(=O)O[C@@H]2/C=C(\C)CC/C=C(\C)C[C@@H](OC(=O)/C(=C\COC(C)=O)CO)[C@@H]12 | > 29
